Measured values taken from ChEMBL document CHEMBL1141150, “Synthesis of classical, four-carbon bridged 5-substituted furo[2,3-d]pyrimidine and 6-substituted pyrrolo[2,3-d]pyrimidine analogues as antifolates” (J Med Chem, 2005).

Key:
CCRF-CEM [1] = experiment: Growth inhibitory activity against resistant CCRF-CEM human lymphoblastic leukemia cells with decreased uptake of MTX; type: functional, cell-based
Thymidylate synthase [2] = molecular target: Thymidylate synthase (Escherichia coli, UniProt C3SWJ7); experiment: Inhibition of Escherichia coli thymidylate synthetase at 37 degree C pH 7.4
Thymidylate synthase (Escherichia coli, UniProt C3SWJ7), sequence (C3SWJ7 whole entry): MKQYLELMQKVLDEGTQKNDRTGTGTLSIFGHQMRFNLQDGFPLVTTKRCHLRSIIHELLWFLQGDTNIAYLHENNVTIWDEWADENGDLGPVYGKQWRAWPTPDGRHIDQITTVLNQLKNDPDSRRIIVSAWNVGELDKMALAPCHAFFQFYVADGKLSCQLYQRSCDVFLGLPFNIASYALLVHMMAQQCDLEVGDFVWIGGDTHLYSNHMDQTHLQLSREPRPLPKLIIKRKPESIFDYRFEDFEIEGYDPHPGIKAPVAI

Thymidylate synthase [3] = molecular target: T1, Thymidylate synthase (Lactobacillus casei, UniProt P00469); experiment: Inhibition of Lactobacillus casei thymidylate synthetase at 37 degree C pH 7.4; set-up: species or system Lacticaseibacillus casei
T1 sequence (P00469 whole entry): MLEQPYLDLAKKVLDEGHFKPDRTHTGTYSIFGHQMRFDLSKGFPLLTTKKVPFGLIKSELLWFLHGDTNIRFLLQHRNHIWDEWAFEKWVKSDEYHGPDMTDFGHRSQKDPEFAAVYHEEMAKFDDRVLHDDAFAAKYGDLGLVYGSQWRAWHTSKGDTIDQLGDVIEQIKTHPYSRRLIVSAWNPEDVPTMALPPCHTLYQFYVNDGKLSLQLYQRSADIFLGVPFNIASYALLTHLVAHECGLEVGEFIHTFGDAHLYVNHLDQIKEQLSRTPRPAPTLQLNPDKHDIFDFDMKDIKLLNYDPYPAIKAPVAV

CCRF-CEM [4] = experiment: Growth inhibitory activity against MTX resistant subline of CCRF-CEM human lymphoblastic leukemia cells; type: functional, cell-based
[5] = Vmax, rel (FPGS substrate activity) for recombinant human FPGS; type: ADME
[6] = Ratio of Vmax, rel to Km (FPGS substrate activity) for recombinant human FPGS; type: ADME
Dihydrofolate reductase [7] = molecular target: Dihydrofolate reductase (Lactobacillus casei, UniProt P00381)
Dihydrofolate reductase (Lactobacillus casei, UniProt P00381), sequence (P00381 whole entry): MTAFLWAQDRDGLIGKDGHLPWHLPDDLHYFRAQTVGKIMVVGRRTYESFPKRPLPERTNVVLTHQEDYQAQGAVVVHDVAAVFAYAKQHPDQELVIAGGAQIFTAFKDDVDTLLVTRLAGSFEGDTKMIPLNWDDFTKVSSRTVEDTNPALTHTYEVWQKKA
Description: Inhibition of Lactobacillus casei dihydrofolate reductase at 37 degree C pH 7.4

Thymidylate synthase [8] = molecular target: Thymidylate synthase (Homo sapiens, UniProt P04818); experiment: Inhibition of human thymidylate synthetase at 37 degree C pH 7.4
Thymidylate synthase (Homo sapiens, UniProt P04818), sequence (P04818 whole entry): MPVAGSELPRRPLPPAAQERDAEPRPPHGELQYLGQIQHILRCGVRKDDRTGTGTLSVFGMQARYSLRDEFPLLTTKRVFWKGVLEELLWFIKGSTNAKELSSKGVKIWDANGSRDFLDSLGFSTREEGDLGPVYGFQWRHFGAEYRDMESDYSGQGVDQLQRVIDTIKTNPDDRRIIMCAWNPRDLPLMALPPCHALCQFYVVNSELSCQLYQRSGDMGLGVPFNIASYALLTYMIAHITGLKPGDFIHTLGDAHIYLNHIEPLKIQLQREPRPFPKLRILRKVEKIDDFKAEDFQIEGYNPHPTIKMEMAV

CCRF-CEM [9] = experiment: Growth inhibitory activity against CCRF-CEM human lymphoblastic leukemia cells; type: functional, cell-based
Dihydrofolate reductase [10] = molecular target: T2, Dihydrofolate reductase (Escherichia coli, UniProt P0ABQ4)
T2 sequence (P0ABQ4 whole entry): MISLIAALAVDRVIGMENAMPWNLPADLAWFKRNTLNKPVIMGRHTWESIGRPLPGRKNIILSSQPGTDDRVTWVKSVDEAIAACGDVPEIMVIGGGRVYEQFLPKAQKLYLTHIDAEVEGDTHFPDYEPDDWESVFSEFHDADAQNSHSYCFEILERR
Description: Inhibition of Escherichia coli dihydrofolate reductase at 37 degree C pH 7.4

Dihydrofolate reductase [11] = molecular target: T3, Dihydrofolate reductase (Homo sapiens, UniProt P00374)
T3 sequence (P00374 whole entry): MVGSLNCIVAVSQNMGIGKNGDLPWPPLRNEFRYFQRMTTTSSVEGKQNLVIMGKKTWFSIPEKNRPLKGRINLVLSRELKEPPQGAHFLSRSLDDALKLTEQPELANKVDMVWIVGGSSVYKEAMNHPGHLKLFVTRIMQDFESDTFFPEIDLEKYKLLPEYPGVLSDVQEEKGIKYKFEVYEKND
Description: Inhibition of human dihydrofolate reductase at 37 degree C pH 7.4

CCRF-CEM [12] = experiment: Growth inhibitory activity against MTX resistant CCRF-CEM human lymphoblastic leukemia cells with decreased polyglutamylation; type: functional, cell-based
CCRF-CEM [13] = experiment: Protection of CCRF-CEM human leukemia cells against the growth inhibitory effect of MTX by 10 uM of hypoxanthine at 5000 nM concentration of compound; type: functional
CCRF-CEM [14] = experiment: Protection of CCRF-CEM human leukemia cells against the growth inhibitory effect of MTX by 10 uM of hypoxanthine and 5 uM of thymidine at 5000 nM concentration of compound; type: functional
786-0 = experiment: Cytotoxicity of compound against 786-0 renal cancer cell line; type: functional; conditions: Homo sapiens
SW-620 = experiment: Cytotoxicity of compound against SW-620 colon cancer cell line; type: functional; conditions: Homo sapiens
CCRF-CEM [15] = experiment: Protection of CCRF-CEM human leukemia cells against the growth inhibitory effect of MTX by 5 uM of thymidine at 5000 nM concentration of compound; type: functional
SR = experiment: Cytotoxicity of compound against SR leukemia cell line; type: functional; conditions: Homo sapiens
HL-60 = experiment: Cytotoxicity of compound aganist HL-60 leukemia cell line; type: functional; conditions: Homo sapiens
K562 = experiment: Cytotoxicity of compound against […] leukemia cell line; type: functional; conditions: Homo sapiens

Row | SMILES | EC50 (CCRF-CEM [1]) [nM] | IC50 (Thymidylate synthase [2]) [µM] | IC50 (Thymidylate synthase [3]) [µM] | EC50 (CCRF-CEM [4]) [µM] | Vmax rel [5] | Ratio [6] | IC50 (Dihydrofolate reductase [7]) [µM] | IC50 (Thymidylate synthase [8]) [µM] | EC50 (CCRF-CEM [9]) [nM] | IC50 (Dihydrofolate reductase [10]) [µM] | IC50 (Dihydrofolate reductase [11]) [µM] | EC50 (CCRF-CEM [12]) [nM] | other results
1 | Nc1nc2[nH]c(CCCc3ccc(C(=O)N[C@@H](CCC(=O)O)C(=O)O)cc3)cc2c(=O)[nH]1 | 4350 | > 180 | > 100 | 0.86 | 0.57 | 0.63 | > 110 | > 17 | 460 | 22 | > 24 | 470 | 
2 | Nc1nc(N)c2nc(CNc3ccc(C(=O)N[C@@H](CCC(=O)O)C(=O)O)cc3)cnc2n1 [AMINOPTERIN] |  |  |  |  | 1 | 0.19 |  |  |  |  |  |  | 
3 | Nc1nc(N)c2c(CCc3ccc(C(=O)N[C@@H](CCC(=O)O)C(=O)O)cc3)coc2n1 |  |  |  |  | 0.65 | 0.07 |  |  |  |  |  |  | 
4 | Nc1nc2[nH]cc(CCc3ccc(C(=O)N[C@@H](CCC(=O)O)C(=O)O)cc3)c2c(=O)[nH]1 [PEMETREXED] |  |  |  |  |  |  |  |  |  |  |  |  | Ki (Thymidylate synthase [8]): 340 nM
5 | Nc1nc(N)c2c(CCCc3ccc(C(=O)N[C@@H](CCC(=O)O)C(=O)O)cc3)coc2n1 | 1050 |  |  | ≥ 4.6 |  |  | 10 |  | 60 |  |  | 84 | 
6 | Nc1nc2[nH]c(CCCCc3ccc(C(=O)N[C@@H](CCC(=O)O)C(=O)O)cc3)cc2c(=O)[nH]1 | 8100 | > 170 | > 100 | 3.05 | 0.54 | 0.086 | > 110 | > 17 | 1100 | 100 | > 20 | 18000 | Relative growth (CCRF-CEM [13]): 85%; Relative growth (CCRF-CEM [14]): 85%; GI50 (786-0): 898 nM; GI50 (SW-620): 3810 nM; Relative growth (CCRF-CEM [15]): 18%; GI50 (SR): 609 nM; GI50 (HL-60): 6.56 µM; GI50 (K562): 398 nM
7 | Nc1nc(N)c2c(CCCCc3ccc(C(=O)N[C@@H](CCC(=O)O)C(=O)O)cc3)coc2n1 | 265 | > 100 | > 100 | 4.85 | 0.54 | 0.27 | 10 | > 18 | 120 | 21 | 21 | 3150 | Relative growth (CCRF-CEM [13]): 21%; Relative growth (CCRF-CEM [14]): 74%; GI50 (786-0): > 100000 nM; GI50 (SW-620): 78.3 nM; Relative growth (CCRF-CEM [15]): 20%; GI50 (SR): 47.8 nM; GI50 (HL-60): 0.0381 µM; GI50 (K562): 214 nM
